Source: patent EP0714604A1, “A composition having insecticidal and acaricidal properties” (MITSUI TOATSU CHEMICALS, INCORPORATED, priority 1994, dated 1996)

Columns and labels:
Assay type in all cases: in vivo
[1] = test system: resistant strain of the greenhouse whitefly; assay: Test 6: effect on a resistant strain of the greenhouse whitefly (eggs on leaf sections, LC50); details: one-day-old eggs on kidney bean leaf sections sprayed, 25°C, twelve days after the treatment
Procedure: About 2 cm square sections of kidney bean leaves on which one-day-old eggs of the greenhouse whitefly had been deposited were placed on wetted absorbent cotton, sprayed with 4 ml each of various dilutions of 10% Anniverse Emulsion (Compound No.1), 0.6% Avermectin Emulsion or a mixture thereof by means of a tower sprayer, and maintained in a thermostatic chamber kept at 25°C. Twelve days after the treatment, the numbers of surviving insects, dead insects, unhatched eggs and escaping insects were examined. Thus, the survival rates at various concentrations were calculated and the LC₅₀ value (in ppm) was determined therefrom.

[2] = test system: resistant strain of the citrus red mite; assay: Test 4: effect on a resistant strain of the citrus red mite (leaf section spray, LC50); details: eggs on mandarin tree leaf sections sprayed, 25°C, eleven days after the treatment
Procedure: (§1) About 2 cm square sections of mandarin tree leaves were placed on wetted absorbent cotton. Then, 7 female adults of the citrus red mite were inoculated on each leaf section and allowed to deposit eggs. After 24 hours, the adult mites were removed, 4 ml each of various dilutions of 10% Anniverse Emulsion (Compound No.1), 0.6% Avermectin Emulsion or a mixture thereof were sprayed by means of a tower sprayer, and the leaf sections were maintained in a thermostatic chamber kept at 25°C. Eleven days after the treatment, the numbers of surviving mites, dead mites, unhatched eggs and escaping mites were examined. Thus, the survival rates at various concentrations were calculated and the LC₅₀ value (in ppm) was determined therefrom.

[3] = test system: second-instar larvae of the diamond-back moth; assay: Test 8: effect on the diamondback moth (residual activity on sprayed potted cabbages); details: dead larvae 2 days after feeding
Source text: Potted cabbages were sprayed with a diluted fluid of an emulsion of a compound of the general formula (1) [i.e., 10% Anniverse Emulsion (Compound No.1), 20% Trebon Emulsion (Compound No.2), an emulsion of Compound No.3, an emulsion of Compound No.4, or Shironen Emulsion (Compound No.5)], 0.6% Avermectin Emulsion or a mixture thereof to such an extent that the fluid dripped from their leaves. Subsequently, cabbage leaves were sampled at predetermined intervals and fed to second-instar larvae of the diamond-back moth. Then, the number of dead larvae was examined after 2 days from the feeding.

[4] = test system: resistant strain of the Kanzawa spider mite; assay: Test 2: effect on a resistant strain of the Kanzawa spider mite (leaf section spray, LC50); details: eggs on kidney bean leaf sections sprayed, 25°C, eleven days after the treatment
Procedure: as §1, with “kidney bean” for “mandarin tree”, “Kanzawa spider” for “citrus red”, “No.1), 20% Trebon Emulsion (Compound No.2),” for “No.1),”
(§2) In order to evaluate the synergistic effect of each compound of the general formula (1) and the macrolide compound, the combined toxicity index was calculated from the LC₅₀ values of the respective compounds in the same manner as in Test 1.

[5] = test system: sensitive strain of the Kanzawa spider mite; assay: Test 1: effect on a sensitive strain of the Kanzawa spider mite (leaf section spray, LC50); details: eggs on kidney bean leaf sections sprayed, 25°C, eleven days after the treatment
Procedure: as §1, with “kidney bean” for “mandarin tree”, “Kanzawa spider” for “citrus red”
In order to evaluate the synergistic effect of the compound of the general formula (1) and the macrolide compound, the combined toxicity index was calculated from the LC₅₀ values of the respective compounds according to the equation of Y.P. Sun et al. (J. Econ. Ent., 53(5), 887, 1960).
The equation of Y.P. Sun et al. for calculating the combined toxicity index is more fully explained below. […]

[6] = test system: resistant strain of the Kanzawa spider mite; assay: Test 3: effect on a resistant strain of the Kanzawa spider mite, Milbenock Emulsion as macrolide (LC50); details: 1% Milbenock Emulsion as macrolide, eleven days after the treatment
Procedure: A test was carried out in the same manner as in Test 1, except that, in place of 0.6% Avermectin Emulsion, 1% Milbenock Emulsion was used as the macrolide compound.

[7] = test system: Kanzawa spider mite; assay: Test 5: effect on the Kanzawa spider mite living on potted kidney bean plants (mite counts); details: Compound No.1 25 ppm, 51 before treatment
Source text: Potted kidney bean plants in the first true leaf stage were inoculated with female adults of the Kanzawa spider mite and allowed to stand in a greenhouse for about a week. After leaves infested with Kanzawa spider mites were marked, the kidney bean plants were sprayed with a diluted fluid of 10% Anniverse Emulsion (Compound No.1), a macrolide compound (i.e., 0.6% Avermectin Emulsion or 1% Milbenock Emulsion) or a mixture thereof to such an extent that the fluid dripped from their leaves. The number of Kanzawa spider mites living on the marked leaves was counted 2, 7, 12, 16 and 27 days after the treatment.

[8] = test system: green peach aphid; assay: Test 7: effect on the green peach aphid living on eggplants (population density); details: Compound No.1 25 ppm, before treatment = 100
Procedure: After leaves naturally infested with green peach aphids were marked, eggplants were sprayed with a diluted fluid of 10% Anniverse Emulsion (Compound No.1), 0.6% Avermectin Emulsion or a mixture thereof to such an extent that the fluid dripped from their leaves. The number of green peach aphids living on the marked leaves was counted 2, 7, 14, 21 and 28 days after the treatment, and the corrected population density index was calculated according to the equation given below. Corrected population density index =((Number of insects after treatment in treated division)/(Number of insects before treatment in treated division))/((Number of insects after treatment in untreated division)/(Number of insects before treatment in untreated division))x 100 [formula]

[9] = test system: resistant strain (selected by Compound No.1) of the Kanzawa spider mite; assay: Test 9: effect on a resistant strain (selected by Compound No.1) of the Kanzawa spider mite (LC50); details: eggs on kidney bean leaf sections sprayed, 25°C, eight days after the treatment
Procedure: as §1, with “kidney bean” for “mandarin tree”, “Kanzawa spider” for “citrus red”, “removed,” for “removed, 4 ml each of”, “an emulsion of a compound of the general formula (1) [i.e., 20% Trebon” for “10% Anniverse”, “No.2), an emulsion of Compound No.3, an emulsion of Compound No.4, or Shironen Emulsion (Compound No.5)], 1% Milbenock” for “No.1), 0.6% Avermectin”, “Eight” for “Eleven”
as §2

[10] = compound of formula (1) alone 50 ppm, leaves sampled 2 days after treatment
[11] = compound of formula (1) alone 50 ppm, leaves sampled 7 days after treatment
[12] = compound of formula (1) alone 50 ppm, leaves sampled 14 days after treatment
[13] = compound of formula (1) alone 50 ppm, leaves sampled 21 days after treatment
[14] = compound of formula (1) alone 50 ppm, leaves sampled 28 days after treatment
[15] = compound of formula (1) alone 50 ppm, leaves sampled 35 days after treatment

| Structure (SMILES) | LC₅₀ value [4] [ppm] | Death rate [3, 10] [%] | Death rate [3, 11] [%] | Death rate [3, 12] [%] | Death rate [3, 13] [%] | LC₅₀ value [9] [ppm] | Death rate [3, 14] [%] | Death rate [3, 15] [%] | other results |
| --- | --- | --- | --- | --- | --- | --- | --- | --- | --- |
| CC(C)(COCc1cccc(Oc2ccccc2)c1)c1ccc(OC(F)(F)Br)cc1 [Compound No.1] | 11.5 | – | – | – | – | – | – | – | LC₅₀ value [1]: 630 ppm; LC₅₀ value [2]: 2000 ppm; Death rate ([3]; compound of formula (1) alone 25 ppm, leaves sampled 2 days after treatment): 90%; Death rate ([3]; compound of formula (1) alone 25 ppm, leaves sampled 7 days after treatment): 10%; Death rate ([3]; compound of formula (1) alone 25 ppm, leaves sampled 14 days after treatment): 0%; Death rate ([3]; compound of formula (1) alone 25 ppm, leaves sampled 21 days after treatment): 0%; LC₅₀ value [5]: 1.13 ppm; LC₅₀ value [6]: 11.5 ppm; Number of living mites ([7]; 2 days after treatment): 0; Number of living mites ([7]; 7 days after treatment): 0; Number of living mites ([7]; 12 days after treatment): 0; Number of living mites ([7]; 16 days after treatment): 27; Number of living mites ([7]; 27 days after treatment): 102; Corrected population density index ([8]; 2 days after treatment): 0; Corrected population density index ([8]; 7 days after treatment): 0.3; Corrected population density index ([8]; 14 days after treatment): 2.5; Corrected population density index ([8]; 21 days after treatment): 42.5; Corrected population density index ([8]; 28 days after treatment): 96.5 |
| CCOc1ccc(C(C)(C)COCc2cccc(Oc3ccccc3)c2)cc1 [Compound No.2] | 162 | 38 | 15 | 25 | 11 | 375 | – | – | – |
| CCOc1ccc(C(C)(C)CCCc2cccc(Oc3ccccc3)c2)cc1 [Compound No.3] | – | 70 | 45 | 15 | 40 | 519 | 35 | 5 | – |
| CCOc1ccc(C(C)(C)CCCc2ccc(F)c(Oc3ccccc3)c2)cc1 [Compound No.4] | – | 94 | 65 | 60 | 10 | 94 | 0 | 0 | – |
| CCOc1ccc([Si](C)(C)CCCc2ccc(F)c(Oc3ccccc3)c2)cc1 [Compound No.5] | – | 95 | 73 | 50 | 15 | 1150 | 0 | 0 | – |
